Patent US6482799B1, “Self-preserving multipurpose ophthalmic solutions incorporating a polypeptide antimicrobial” (The Regents of the University of California, priority 1999, dated 2002)

Assays:
S. aureus ATCC 6538 = assay: Long-term (8 month) stability in commercial container (Rite-Aid) by S. aureus bioassay; assay type: cell-based, Staphylococcus aureus; settings: 50 μg/ml; for log kill: 4 hours exposure; for stability: 8 months
Procedure: Long term stability of indolicidin was evaluated in a commercial container (Rite-Aid). The L-indolicidin concentration was 50 μg/ml formulated in a 10 mM sodium phosphate buffer, pH 7.4, with and without 0.85% sodium chloride. The test organism was S. aureus ATCC 6538. Sampling time was 0, 1, 2, 3, 4 and 8 months. The exposure time of the test organism was 0 and 4 hours.

S. aureus (ATCC 6538) = assay: Protocol 1 kill curve / MIC, 1 hour at 37° C.; assay type: cell-based, Staphylococcus aureus; settings: 10 mM sodium phosphate buffer
Procedure: This protocol is used to develop dose-response (kill) curves to calculate the minimal inhibitory concentration of an indolicidin (e.g., L-indolicidin (L-IND)) when formulated in a commercially available phosphate buffered saline (PBS) solution. In addition, for comparative purposes, kill curves are established for the following three commonly available commercial lens-care products containing different preservatives:
The stock solutions are diluted in a 2-fold fashion by transferring 1 ml of each stock solution to 1 ml of appropriate diluent in sterile glass tubes (100×13 mm). Twelve additional 2-fold dilutions are made by transferring 1 ml aliquots of each dilution to 1 ml diluent. The diluent for all commercial lens-care products is PBS. […]
Viable counts of the bacteria are performed by 10-fold serial dilutions in sterile PBS and by plating 0.1 ml aliquots on nutrient agar plates. […] The plates are incubated overnight at 37° C. and colonies are counted and recorded. […]
Survival is expressed as number of surviving bacteria (CFU/ml) for each dilution of the test article and control solutions. The lowest dose of the test article that results in complete kill of the test organism, compared to the non-exposed control, is determined to be the MIC value. […]

SMILES: CC[C@H](C)[C@H](N)C(=O)N[C@@H](CC(C)C)C(=O)N1CCC[C@H]1C(=O)N[C@@H](Cc1c[nH]c2ccccc12)C(=O)N[C@@H](CCCCN)C(=O)N[C@@H](Cc1c[nH]c2ccccc12)C(=O)N1CCC[C@H]1C(=O)N[C@@H](Cc1c[nH]c2ccccc12)C(=O)N[C@@H](Cc1c[nH]c2ccccc12)C(=O)N1CCC[C@H]1C(=O)N[C@@H](Cc1c[nH]c2ccccc12)C(=O)N[C@@H](CCCNC(=N)N)C(=O)N[C@@H](CCCNC(=N)N)C(N)=O [L-indolicidin, H2N-ILPWKWPWWPWRR-CONH2]
- log kill (S. aureus ATCC 6538; 10 mM SP pH 7.4, over 8 months): ~4 log
- log kill (S. aureus ATCC 6538; 10 mM SP with 0.85% NaCl, over 8 months): ~1 log
- stability (S. aureus ATCC 6538; 10 mM SP with NaCl): 100%
- stability (S. aureus ATCC 6538; 10 mM SP): 100%
- log kill (S. aureus (ATCC 6538); 6.25 μg/ml): ~3 log
- survival (S. aureus (ATCC 6538); 100, 50, 25 and 12.5 μg/ml, 4.1×10^5 CFU/ml): no detectable survival
